Laboratory results reported in patent US7482321B2, “Extended glucagon-like peptide-1 analogs” (Eli Lilly and Company, priority 2002, dated 2009).
Where “and” joins values, the source holds several entries; their conditions need not be identical. Identical values can stand only once. Like-named read-outs stand apart in the source and are kept apart here. Marks after values point to notes of the source that are not given here. Ends that are not written are not given here.

What was measured:
[1] = Pharmacokinetics after single intravenous dose in rats; settings: single i.v. 10 μg/kg; for level at 5 min / level at 0.25 h / level at 0.5 h / level at 1 h / level at 2 h: Sprague Dawley, plasma, Plasma Concentration; for level at 1 h: 60 min; for AUC0-last / Cl / Cmax / Vss / t½ / AUC(0-t) / clearance / Vd / half-life: Sprague Dawley rats; for AUC(0-t): AUC0-last; for clearance: Cl; for Vd: Vss; for half-life: t½
Procedure: (§1) Pharmacokinetic parameters were determined for the following 5 different extended GLP-1 peptides:
(§2) Parameters were determined following a single intravenous dose of 10 μg/kg in four different rats.

[2] = Dog hyperglycemic clamp study, GLP-1 peptide concentration; design: species or system dogs; settings: in vivo, iv
Procedure: Several different extended and non-extended GLP-1 peptides were tested for activity in a hyperglycemic clamp study in dogs. Glucose was infused for 200 minutes to maintain constant levels. For the first 80 minutes dogs were infused intravenously with vehicle to establish a baseline insulin concentration. For the next 60 minutes, GLP-1 peptides were administered at a rate of 1 pmol/kg/min. For the final 60 minutes the infusion rate of each GLP-1 compound was increased to 3 pmol/kg/min. Blood samples were taken periodically for the determination of insulin and GLP-1 peptide concentrations. Insulin change values were calculated as the difference between the value at time t and the average value during the last 20 minutes of the control period (60-80) minutes and are presented in Table 3. Areas under the insulin change curves were calculated using the trapezoidal rule over the last 30 minutes of each infusion period. Values listed are the means±standard error of the mean (SEM).

[3] = rat, in vivo, iv, 10 ug/kg
Procedure: as §1, §2

in vivo = settings: Sprague Dawley, rat, iv, 10 ug/kg, Plasma Concentration
Procedure: as §1, §2

[4] = rat, iv, 10 ug/kg, 5 min, Mean of 4 rats
[5] = rat, iv, 10 ug/kg, 5 min, individual rats
[6] = rat, iv, 10 ug/kg, 15 min, Mean of 4 rats
[7] = rat, iv, 10 ug/kg, 15 min, individual rats
[8] = rat, iv, 10 ug/kg, 30 min, Mean of 4 rats
[9] = rat, iv, 10 ug/kg, 30 min, individual rats
[10] = rat, iv, 10 ug/kg, Mean of 4 rats (values below LLOQ taken as zero)
[11] = rat, iv, 10 ug/kg, 120 min, individual rats
[12] = rat, in vivo, iv, 10 ug/kg, Mean of 4 rats
[13] = rat, in vivo, iv, 10 ug/kg, individual rats
[14] = rat, in vivo, iv, 10 ug/kg, Cmax, Mean of 4 rats
[15] = rat, in vivo, iv, 10 ug/kg, Cmax, individual rats
[16] = infusion rate 1 pmol/kg/min i.v., dog hyperglycemic clamp, after 60 minutes of infusion, mean ± SEM, read-out: Compound Concentration (t = 60′)
[17] = infusion rate 3 pmol/kg/min i.v., dog hyperglycemic clamp, after 60 minutes of infusion, mean ± SEM, read-out: Compound Concentration (t = 60′)
[18] = rat, iv, 10 ug/kg, individual rats

Compound	Plasma Concentration ([1]; 120 min, individual rats)	level at 5 min [1, 4]	level at 0.25 h [1, 6]	level at 0.5 h [1, 8]	level at 1 h [1, 10]	AUC0-last ([1]; individual rats)	Cl ([1]; individual rats)	Cmax ([1]; individual rats)	Vss ([1]; individual rats)	t½ ([1]; individual rats)	AUC(0-t) [1, 12]	AUC(0-t) [1, 13]	clearance [1, 12]	clearance [1, 13]	Cmax [1, 14]	Vd [1, 12]	half-life [1, 12]	level at time molar at 1 h ([2]; dog, 1 pmol/kg/min)	level at time molar at 1 h ([2]; dog, 3 pmol/kg/min)	other results
HVEGTFTSDVSSYLEEQAAKEFIAWLIKGGPSSGDPPPS-NH2 [Compound 1]	<150 ^a pg/mL	23.5 ng/mL	9.61 ng/mL	3.1 ng/mL	0.554 ng/mL	478.8 ng·min/mL and 448.5 ng·min/mL and 469.4 ng·min/mL	20.9 mL/min/kg and 22.3 mL/min/kg and 21.3 mL/min/kg	24.1 ng/mL and 22.8 ng/mL and 22.4 ng/mL	0.2463 L/kg and 0.2657 L/kg and 0.2704 L/kg	10.1 min and 10.9 min	7.92 ng·h/mL	8.41 ng·h/mL	21.1 mL/min/kg	19.8 mL/min/kg	23.5 ng/mL	0.264 L/kg	11 min			Plasma Concentration ([1]; 30 min, individual rats): 3119 pg/mL; level at 5 min [1, 5]: 24.6 ng/mL; level at 0.25 h [1, 7]: 10 ng/mL; level at 0.5 h [1, 9]: 3.12 ng/mL; level at 2 h [1, 11]: < 0.15 ng/mL; Cmax [1, 15]: 24.6 ng/mL; Vd [1, 13]: 0.273 L/kg; half-life [1, 13]: 13.1 min; level at time molar at 1 h [2, 16]: 0.268 ± 0.045 nM; level at time molar at 1 h [2, 17]: 0.977 ± 0.135 nM
HVEGTFTSDVSSYLEEQAAKEFIAWLVKGRGSSGAPPPS [Compound 3]	<150 ^a pg/mL	23.2 ng/mL	8.81 ng/mL	3.44 ng/mL	0.657 ng/mL	465.6 ng·min/mL and 492.5 ng·min/mL and 409.1 ng·min/mL	21.5 mL/min/kg and 20.3 mL/min/kg and 24.4 mL/min/kg	22.7 ng/mL and 24.3 ng/mL and 21.1 ng/mL	0.2805 L/kg and 0.2624 L/kg and 0.3134 L/kg	11.7 min and 12.0 min and 14.4 min	7.96 ng·h/mL	7.78 ng·h/mL	21 mL/min/kg	21.4 mL/min/kg	23.3 ng/mL	0.277 L/kg	12.1 min			Plasma Concentration ([1]; 15 min, individual rats): 8467 pg/mL; level at 5 min [1, 5]: 23.6 ng/mL; level at 0.25 h [1, 7]: 8.6 ng/mL; level at 0.5 h [1, 9]: 3 ng/mL; level at 1 h [1, 18]: 0.566 ng/mL; level at 2 h [1, 11]: < 0.15 ng/mL; Cmax [1, 15]: 23.6 ng/mL; Vd [1, 13]: 0.263 L/kg; half-life [1, 13]: 11.6 min
HVEGTFTSDVSSYLEEQAVKEFIAWLIKGRGSSGAPPPS [SEQ ID NO:35]																		0.267 ± 0.031 nM	1.04 ± 0.103 nM	
HVEGTFTSDVSSYLEEQAAKEFIAWLIKGGPSSGDPPPS [Compound 2]	<150 ^a pg/mL	17.3 ng/mL	6.82 ng/mL	2.95 ng/mL	1.05 ng/mL	312.2 ng·min/mL and 430.0 ng·min/mL and 409.1 ng·min/mL	32.0 mL/min/kg and 23.3 mL/min/kg and 24.4 mL/min/kg	9.8 ng/mL and 16.9 ng/mL and 21.4 ng/mL and 21.1 ng/mL	0.9739 L/kg and 0.3557 L/kg and 0.2833 L/kg and 0.3134 L/kg	35.8 min and 12.3 min and 10.6 min and 14.4 min	6.93 ng·h/mL	8.55 ng·h/mL	24.8 mL/min/kg	19.5 mL/min/kg	17.3 ng/mL	0.482 L/kg	18.3 min			level at time molar at 1 h [2, 16]: 0.204 ± 0.024 nM; level at time molar at 1 h [2, 17]: 0.755 ± 0.072 nM
HVEGTFTSDWSSYLEEQAAKEFIAWLIKGRGSSGAPPPS [Compound 5]																				AUC(0-t) ([3]; AUC0-last): 12.5 ng·h/mL; clearance ([3]; Cl): 13.4 mL/min/kg; Cmax ([3]; Cmax): 35.9 ng/mL; Vd ([3]; Vss): 0.179 L/kg; half-life ([3]; t½): 11.9 min; level at 5 min (in vivo): 35.9 ng/mL; level at 0.25 h (in vivo): 16.1 ng/mL; level at 2 h (in vivo): < 0.15 ng/mL
HVEGTFTSDVSSYLEEQAAKEFIAWLIKGGPSSGAPPPS [SEQ ID NO:55]																		0.246 ± 0.017 nM	0.766 ± 0.046 nM	
HVEGTFTSDVSSYLEEQAVKEFIAWLIKGGPSSGAPPPS-NH2 [SEQ ID NO:13]																		0.366 ± 0.059 nM	1.32 ± 0.211 nM	
CC[C@H](C)[C@H](NC(=O)[C@H](Cc1ccccc1)NC(=O)[C@H](CCC(=O)O)NC(=O)[C@H](CCCCN)NC(=O)[C@H](C)NC(=O)[C@H](C)NC(=O)[C@H](CCC(N)=O)NC(=O)CNC(=O)[C@H](CCC(=O)O)NC(=O)[C@H](CC(C)C)NC(=O)[C@H](Cc1ccc(O)cc1)NC(=O)[C@H](CO)NC(=O)[C@H](CO)NC(=O)[C@@H](NC(=O)[C@H](CC(=O)O)NC(=O)[C@H](CO)NC(=O)[C@@H](NC(=O)[C@H](Cc1ccccc1)NC(=O)[C@@H](NC(=O)CNC(=O)[C@H](CCC(=O)O)NC(=O)[C@@H](NC(=O)[C@@H](N)Cc1c[nH]cn1)C(C)C)[C@@H](C)O)[C@@H](C)O)C(C)C)C(=O)N[C@@H](C)C(=O)N[C@@H](Cc1c[nH]c2ccccc12)C(=O)N[C@@H](CC(C)C)C(=O)N[C@H](C(=O)N[C@@H](CCCCN)C(=O)NCC(=O)N[C@@H](CCCNC(=N)N)C(=O)NCC(=O)N[C@@H](CO)C(=O)N[C@@H](CO)C(=O)NCC(=O)N[C@@H](C)C(=O)N1CCC[C@H]1C(=O)N1CCC[C@H]1C(=O)N1CCC[C@H]1C(=O)N[C@@H](CO)C(=O)O)C(C)C [Compound 4]	<150 ^a pg/mL	23.6 ng/mL	9.86 ng/mL	3.18 ng/mL	0.636 ng/mL	486.7 ng·min/mL and 424.9 ng·min/mL and 461.5 ng·min/mL	20.5 mL/min/kg and 23.5 mL/min/kg and 21.7 mL/min/kg	24.9 ng/mL and 20.0 ng/mL and 24.0 ng/mL	0.2511 L/kg and 0.3159 L/kg and 0.2492 L/kg	11.9 min and 11.2 min and 11.0 min	8.05 ng·h/mL	9.33 ng·h/mL	20.9 mL/min/kg	17.9 mL/min/kg	23.6 ng/mL	0.269 L/kg	11.5 min			Plasma Concentration ([1]; 5 min, individual rats): 24853 pg/mL; level at 5 min [1, 5]: 25.4 ng/mL; level at 0.25 h [1, 7]: 12.1 ng/mL; level at 0.5 h [1, 9]: 4.37 ng/mL; level at 1 h [1, 18]: 0.869 ng/mL; level at 2 h [1, 11]: < 0.15 ng/mL; Cmax [1, 15]: 25.4 ng/mL; Vd [1, 13]: 0.259 L/kg; half-life [1, 13]: 12 min
HVEGTFTSDVSSYLEEQAVKEFIAWLIKGGPSSGAPPPRG [SEQ ID NO:48]																		0.227 ± 0.04 nM	1.09 ± 0.106 nM	
HVEGTFTSDVSSYLEEQAVKEFIAWLIKGGPSSGAPPPS [SEQ ID NO:42]																		0.276 ± 0.036 nM	1.11 ± 0.139 nM	
HVEGTFTSDVSSYLEEQAVKEFIAWLIKGGPSSGAPPPSH [SEQ ID NO:43]																		0.306 ± 0.02 nM	1.06 ± 0.034 nM	
